These results are taken from PMC10290954 (Nature Metabolism, 2023).

For one experiment, the system named is human islets. As to the kind of experiment: Human islet perifusion, insulin secretion with Ex9 or hGIP(3-30) (Extended Data Fig. 2). Format: cell-based. To be noted: two donor sets, 30 nM tirzepatide, antagonist 1 μM. As to the method:
Human islets were obtained from both the Alberta Diabetes Institute and the Integrated Islet Distribution Program. All islets were obtained from consenting donors. Details for the general perifusion protocol have been previously described[21] and are similar to the mouse perifusion protocol. […] Each set of human islets consisted of n = 3 for each condition. These were averaged to generate a single data point (Fig. 2c). Insulin values were measured with a Lumit insulin immunoassay (Promega) using an EnVision plate reader (PerkinElmer). For the glucagon secretion experiments (Fig. 3), the average glucagon values were calculated during control (minutes 35–45) and stimulated (minutes 55–65) conditions. All peptides were used at 30 nM concentrations based on previous work[16]. Amino acids were used at concentrations of 3 mM based on previous work[11]. Glucagon was measured with a Lumit Glucagon Immunoassay Kit (cat. no. CS3037A02; Promega) using an EnVision plate reader (PerkinElmer). Somatostatin was measured with an ELISA assay (cat. no. FEK-060-14; Phoenix Pharmaceuticals). All data are expressed as the measured concentration relative to both flow rate and islet number (insulin, ng ml^–1 × (1/200 µl ml^–1) × (1/75 islets); glucagon, pM × (1/200 µl ml^–1) × (1/75 islets); somatostatin, pg ml^–1 × (1/200 µl ml^–1) × (1/75 islets))[49]. Human pancreatic islets and pancreas tissue were isolated from deceased donors under ethical approval from the Human Research Ethics Board of the University of Alberta (Pro00013094, Pro00001754) and obtained from the NIDDK-funded Integrated Islet Distribution Program (IIDP) (RRID: SCR _014387). All donors’ families gave informed consent for the use of pancreatic tissue in research and were not financially compensated.
The integrated area under the curve (iAUC) was calculated for both glucose and tirzepatide stimulated insulin secretion using the value of the first time point as the baseline. All values are mean + /- SEM, n = 3/group. A one-way ANOVA with Tukey’s posthoc test was used. Source data

Experiment [1] concerns the target T1, mouse GIP receptor (mGIPR), cloned, in membranes of HEK cells (mouse) (UniProt Q0P543).
T1 sequence: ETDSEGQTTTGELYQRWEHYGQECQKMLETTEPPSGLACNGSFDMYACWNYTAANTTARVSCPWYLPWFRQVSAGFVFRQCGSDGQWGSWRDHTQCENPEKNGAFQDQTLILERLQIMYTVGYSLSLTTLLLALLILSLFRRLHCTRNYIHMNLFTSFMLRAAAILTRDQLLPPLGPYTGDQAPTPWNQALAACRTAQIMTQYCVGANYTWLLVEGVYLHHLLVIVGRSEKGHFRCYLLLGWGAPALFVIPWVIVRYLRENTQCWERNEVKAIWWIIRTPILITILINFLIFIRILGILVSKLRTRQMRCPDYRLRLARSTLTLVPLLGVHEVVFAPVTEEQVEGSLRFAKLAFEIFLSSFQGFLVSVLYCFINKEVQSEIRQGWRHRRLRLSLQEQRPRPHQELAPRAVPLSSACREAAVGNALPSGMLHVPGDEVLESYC

For experiment [2], the target named is T2, mouse GIP receptor (mGIPR), transiently expressed in HEK293T cells for BRET (mouse) (UniProt Q0P543).
T2 sequence: T1 sequence

Experiment [3] deals with T3, mouse GIP receptor (Mus musculus, UniProt Q0P543).
T3 sequence (Q0P543 19-460): T1 sequence
As to the kind of experiment: cAMP generation (Glosensor), mouse GIPR. To be noted: for HillSlope / Span (four parameter fit) / Top (four parameter fit) / Bottom (four parameter fit): mGIP-R HEK-293 cells, cAMP formation; for HillSlope: four parameter fit - normalized; for Span (four parameter fit) / Top (four parameter fit) / Bottom (four parameter fit): max signal = 100 nM human GIP(1-42)NH2, normalized. The arrangement: expressed in transfected cells; host or cells: low-receptor-density clonal cell lines. It counts as cell-based. On the procedure:
(§1) Methods for these assays have been previously described. In brief, for GTPγs binding, the potency of ligands to stimulate receptor-dependent elevation of the GTPγS-bound Gαs subunit was determined using membrane preparations from low-receptor-density receptor clonal cell lines. Reactions were incubated for 30 min at room temperature in white, clear-bottom microtiter plates, and per cent of the maximal response was calculated using control wells as a reference. Relative EC50 values were derived by nonlinear regression analysis using the per cent response versus the concentration of ligand and fitted to a four-parameter logistic equation using GraphPad Prism 7 software. For cAMP assays, kinetic cAMP assays were performed in low-density receptor cell clones transfected with the Glosensor 22 F vector (Promega). Cells were equilibrated for 5–20 min and then 20 μl of 10× ligand was added and a luminescence time course was collected. Ligand (10×) was titrated by manual serial dilution in DMSO followed by step-down into assay buffer.

Experiment [4] addresses T3, mouse GIP receptor. Kind of experiment: [35S]GTPγS binding, mouse GIPR. Format: biochemical. The arrangement: expressed in transfected cells; host or cells: low-receptor-density clonal cell lines. The following applies: mGIPR GTPgS. As to the method: as §1, with “collected.” for “collected. Ligand (10×) was titrated by manual serial dilution in DMSO followed by step-down into assay buffer.”

Regarding “hGIP(3-30): a different GIPR antagonist that has been previously characterized (ref 27) (EGTFISDYSIAMDKIHQQDFVNWLLAQK; Gastric inhibitory polypeptide; UniProt P09681 54-81, looked up, fragment)”, in the experiment on human islets, the “Effect on tirzepatide-stimulated insulin secretion” value is listed as “A similar outcome”.

For “human glucose-dependent insulinotropic polypeptide (hGIP) (from UniProt P09681 52-93)”, in experiment [1], the [35S]GTPγS binding (G-protein activation), EC50 is 0.735 nM; the [35S]GTPγS binding (G-protein activation), Emax worked out at 96.7%; the cAMP generation, EC50 stood at 46 pM. Moreover, in experiment [2], the Gs recruitment (ligand-induced BRET), EC50 worked out at 153 nM and the Gs recruitment (ligand-induced BRET), Emax was found to be 101%.

Turning to `CC[C@H](C)[C@H](NC(=O)[C@H](CO)NC(=O)[C@H](Cc1ccc(O)cc1)NC(=O)[C@H](CC(=O)O)NC(=O)[C@H](CO)NC(=O)[C@@H](NC(=O)[C@H](Cc1ccccc1)NC(=O)[C@@H](NC(=O)CNC(=O)[C@H](CCC(=O)O)NC(=O)[C@H](C)NC(=O)[C@@H](N)Cc1ccc(O)cc1)[C@@H](C)O)[C@@H](C)CC)C(=O)N[C@@H](C)C(=O)N[C@@H](CCSC)C(=O)N[C@@H](CC(=O)O)C(=O)N[C@@H](CCCCN)C(=O)N[C@H](C(=O)N[C@@H](CCCNC(=N)N)C(=O)N[C@@H](CCC(N)=O)C(=O)N[C@@H](CCC(N)=O)C(=O)N[C@@H](CC(=O)O)C(=O)N[C@@H](Cc1ccccc1)C(=O)N[C@H](C(=O)N[C@@H](CC(N)=O)C(=O)N[C@@H](Cc1c[nH]c2ccccc12)C(=O)N[C@@H](CC(C)C)C(=O)N[C@@H](CC(C)C)C(=O)N[C@@H](C)C(=O)N[C@@H](CCC(N)=O)C(=O)N[C@@H](CCCNC(=N)N)C(=O)NCC(=O)N[C@@H](CCCCN)C(=O)N[C@@H](CCCCN)C(=O)N[C@@H](CO)C(=O)N[C@@H](CC(=O)O)C(=O)N[C@@H](Cc1c[nH]c2ccccc12)C(=O)N[C@@H](CCCCN)C(=O)N[C@@H](Cc1c[nH]cn1)C(=O)N[C@@H](CC(N)=O)C(=O)N[C@H](C(=O)N[C@H](C(=O)N[C@@H](CCC(N)=O)C(N)=O)[C@@H](C)O)[C@@H](C)CC)C(C)C)[C@@H](C)CC` [mouse GIP(1-42)NH2], the Emax at mouse GIP receptor [3] (HEK293, read-out: Arthmetic Mean Emax) came to 103%. Also, the HillSlope is 0.8118 on mouse GIP receptor [3] (run 2022-10-04, replicate 1); 0.9861 at mouse GIP receptor [3] (run 2022-10-04, replicate 2); 0.7723 on mouse GIP receptor [3] (run 2022-10-06, replicate 1); 0.9288 at mouse GIP receptor [3] (run 2022-10-06, replicate 2); 1.095 on mouse GIP receptor [3] (run 2022-10-12). In addition, the “Span (four parameter fit)” value on mouse GIP receptor [3] (run 2022-10-04, replicate 1) is recorded as 112.9 Percent Max-Min; on mouse GIP receptor [3] (run 2022-10-04, replicate 2), 111.3 Percent Max-Min; at mouse GIP receptor [3] (run 2022-10-06, replicate 1) it was 105.7 Percent Max-Min; on mouse GIP receptor [3] (run 2022-10-06, replicate 2), 102 Percent Max-Min; on mouse GIP receptor [3] (run 2022-10-12) it was 97.15 Percent Max-Min. Besides, the “Top (four parameter fit)” value worked out at 112.9 Percent Max-Min at mouse GIP receptor [3] (run 2022-10-04, replicate 1); 106.4 Percent Max-Min on mouse GIP receptor [3] (run 2022-10-04, replicate 2); 100.3 Percent Max-Min at mouse GIP receptor [3] (run 2022-10-06, replicate 1); 99.51 Percent Max-Min at mouse GIP receptor [3] (run 2022-10-06, replicate 2); 95.87 Percent Max-Min at mouse GIP receptor [3] (run 2022-10-12). For the same compound, the “Bottom (four parameter fit)” value was -5.431 Percent Max-Min at mouse GIP receptor [3] (run 2022-10-06, replicate 1); -2.463 Percent Max-Min at mouse GIP receptor [3] (run 2022-10-06, replicate 2); -1.282 Percent Max-Min on mouse GIP receptor [3] (run 2022-10-12).

On to `CC[C@H](C)[C@H](NC(=O)[C@H](CO)NC(=O)[C@H](Cc1ccc(O)cc1)NC(=O)[C@H](CC(=O)O)NC(=O)[C@H](CO)NC(=O)[C@@H](NC(=O)[C@H](Cc1ccccc1)NC(=O)[C@@H](NC(=O)CNC(=O)[C@H](CCC(=O)O)NC(=O)[C@H](C)NC(=O)[C@@H](N)Cc1ccc(O)cc1)[C@@H](C)O)[C@@H](C)CC)C(=O)N[C@@H](C)C(=O)N[C@@H](CCSC)C(=O)N[C@@H](CC(=O)O)C(=O)N[C@@H](CCCCN)C(=O)N[C@H](C(=O)N[C@@H](Cc1c[nH]cn1)C(=O)N[C@@H](CCC(N)=O)C(=O)N[C@@H](CCC(N)=O)C(=O)N[C@@H](CC(=O)O)C(=O)N[C@@H](Cc1ccccc1)C(=O)N[C@H](C(=O)N[C@@H](CC(N)=O)C(=O)N[C@@H](Cc1c[nH]c2ccccc12)C(=O)N[C@@H](CC(C)C)C(=O)N[C@@H](CC(C)C)C(=O)N[C@@H](C)C(=O)N[C@@H](CCC(N)=O)C(=O)N[C@@H](CCCCN)C(=O)NCC(=O)N[C@@H](CCCCN)C(=O)N[C@@H](CCCCN)C(=O)N[C@@H](CC(N)=O)C(=O)N[C@@H](CC(=O)O)C(=O)N[C@@H](Cc1c[nH]c2ccccc12)C(=O)N[C@@H](CCCCN)C(=O)N[C@@H](Cc1c[nH]cn1)C(=O)N[C@@H](CC(N)=O)C(=O)N[C@H](C(=O)N[C@H](C(=O)N[C@@H](CCC(N)=O)C(N)=O)[C@@H](C)O)[C@@H](C)CC)C(C)C)[C@@H](C)CC` [hGIP], for which the maximal response (Emax) on mouse GIP receptor [4] (run of 2019-03-15) turned out to be 91.9%; at mouse GIP receptor [4] (run of 2019-04-02), 91.5%; at mouse GIP receptor [4] (run of 2019-06-28), 93.8%; at mouse GIP receptor [4] (run of 2022-02-17), 93.1%.
